PubChem BioAssay AID1259407 (Chemical Carcinogenesis Research Information System (CCRIS), 2018)
Active and inactive are the calls of the source. The rule behind the calls is not given here.

Tested on: CCRIS mutagenicity, Ames/micronucleus/aberration tests
Assay: CCRIS mutagenicity studies
Settings: Test System: AMES SALMONELLA TYPHIMURIUM
[1] = Strain/Indicator: TA97, Metabolic Activation: NONE, Method: PREINCUBATION
[2] = Strain/Indicator: TA98, Metabolic Activation: NONE, Method: PREINCUBATION
[3] = Strain/Indicator: TA100, Metabolic Activation: NONE, Method: PREINCUBATION
[4] = Strain/Indicator: TA1535, Metabolic Activation: NONE, Method: PREINCUBATION
[5] = Strain/Indicator: TA98, Metabolic Activation: NONE, Method: STANDARD PLATE
[6] = Strain/Indicator: TA100, Metabolic Activation: NONE, Method: STANDARD PLATE
[7] = Strain/Indicator: TA98, Metabolic Activation: RAT, LIVER, S-9, AROCLOR 1254, Method: STANDARD PLATE

In the case of N#CCc1ccccc1, the mutagenic call (Strain/Indicator: TA97, Metabolic Activation: HAMSTER, LIVER, S-9, AROCLOR 1254 (10%), Method: PREINCUBATION) is reported as “inactive; negative”, the mutagenic call (Strain/Indicator: TA97, Metabolic Activation: HAMSTER, LIVER, S-9, AROCLOR 1254 (30%), Method: PREINCUBATION) is reported as “inactive; negative” and the mutagenic call [1] is reported as “inactive; negative”. The mutagenic call (Strain/Indicator: TA97, Metabolic Activation: RAT, LIVER, S-9, AROCLOR 1254 (5 OR 30%), Method: PREINCUBATION) was “inactive; negative”, the mutagenic call (Strain/Indicator: TA97, Metabolic Activation: RAT, LIVER, S-9, AROCLOR 1254 (10%), Method: PREINCUBATION) was “inactive; negative” and the mutagenic call (Strain/Indicator: TA98, Metabolic Activation: HAMSTER, LIVER, S-9, AROCLOR 1254 (10%), Method: PREINCUBATION) was “inactive; negative”. The mutagenic call (Strain/Indicator: TA98, Metabolic Activation: HAMSTER, LIVER, S-9, AROCLOR 1254 (30%), Method: PREINCUBATION) was “inactive; negative”, the mutagenic call [2] was “inactive; negative” and the mutagenic call (Strain/Indicator: TA98, Metabolic Activation: RAT, LIVER, S-9, AROCLOR 1254 (10%), Method: PREINCUBATION) was “inactive; negative”. The mutagenic call (Strain/Indicator: TA98, Metabolic Activation: RAT, LIVER, S-9, AROCLOR 1254 (30%), Method: PREINCUBATION) was “inactive; negative”, the mutagenic call (Strain/Indicator: TA100, Metabolic Activation: HAMSTER, LIVER, S-9, AROCLOR 1254 (10%), Method: PREINCUBATION) was “inactive; negative” and the mutagenic call (Strain/Indicator: TA100, Metabolic Activation: HAMSTER, LIVER, S-9, AROCLOR 1254 (30%), Method: PREINCUBATION) was “inactive; negative”. The mutagenic call [3] was “inactive; negative”, the mutagenic call (Strain/Indicator: TA100, Metabolic Activation: RAT, LIVER, S-9, AROCLOR 1254 (10%), Method: PREINCUBATION) was “inactive; negative” and the mutagenic call (Strain/Indicator: TA100, Metabolic Activation: RAT, LIVER, S-9, AROCLOR 1254 (30%), Method: PREINCUBATION) was “inactive; negative”. For the same molecule, the mutagenic call (Strain/Indicator: TA1535, Metabolic Activation: HAMSTER, LIVER, S-9, AROCLOR 1254 (10%), Method: PREINCUBATION) was “inactive; negative”, the mutagenic call (Strain/Indicator: TA1535, Metabolic Activation: HAMSTER, LIVER, S-9, AROCLOR 1254 (30%), Method: PREINCUBATION) was “inactive; negative” and the mutagenic call [4] was “inactive; negative”. For the same molecule, the mutagenic call (Strain/Indicator: TA1535, Metabolic Activation: RAT, LIVER, S-9, AROCLOR 1254 (30%), Method: PREINCUBATION) was “inactive; negative”, the mutagenic call (Strain/Indicator: TA1537, Metabolic Activation: HAMSTER, LIVER, S-9, AROCLOR 1254 (10%), Method: PREINCUBATION) was “inactive; negative” and the mutagenic call (Strain/Indicator: TA1537, Metabolic Activation: HAMSTER, LIVER, S-9, AROCLOR 1254 (30%), Method: PREINCUBATION) was “inactive; negative”. For the same molecule, the mutagenic call (Strain/Indicator: TA1537, Metabolic Activation: NONE, Method: PREINCUBATION) was “inactive; negative”, the mutagenic call (Strain/Indicator: TA1537, Metabolic Activation: RAT, LIVER, S-9, AROCLOR 1254 (10%), Method: PREINCUBATION) was “inactive; negative” and the mutagenic call (Strain/Indicator: TA1537, Metabolic Activation: RAT, LIVER, S-9, AROCLOR 1254 (30%), Method: PREINCUBATION) was “inactive; negative”.

In the case of CC(=O)Nc1cccc(C)c1, the mutagenic call (Strain/Indicator: TA97, Metabolic Activation: HAMSTER, LIVER, S-9, AROCLOR 1254 (10 OR 30%), Method: PREINCUBATION) is reported as “inactive; negative”, the mutagenic call [1] is reported as “inactive; negative” and the mutagenic call (Strain/Indicator: TA97, Metabolic Activation: RAT, LIVER, S-9, AROCLOR 1254 (10 OR 30%), Method: PREINCUBATION) is reported as “inactive; negative”. For the same molecule, the mutagenic call (Strain/Indicator: TA98, Metabolic Activation: HAMSTER, LIVER, S-9, AROCLOR 1254 (10 OR 30%), Method: PREINCUBATION) was “inactive; negative”, the mutagenic call [2] was “inactive; negative” and the mutagenic call (Strain/Indicator: TA98, Metabolic Activation: RAT, LIVER, S-9, AROCLOR 1254 (10 OR 30%), Method: PREINCUBATION) was “inactive; negative”. The mutagenic call (Strain/Indicator: TA100, Metabolic Activation: HAMSTER, LIVER, S-9, AROCLOR 1254 (10 OR 30%), Method: PREINCUBATION) was “inactive; negative”, the mutagenic call [3] was “inactive; negative” and the mutagenic call (Strain/Indicator: TA100, Metabolic Activation: RAT, LIVER, S-9, AROCLOR 1254 (10 OR 30%), Method: PREINCUBATION) was “inactive; negative”. For the same molecule, the mutagenic call (Strain/Indicator: TA1535, Metabolic Activation: HAMSTER, LIVER, S-9, AROCLOR 1254 (10 OR 30%), Method: PREINCUBATION) was “inactive; negative”, the mutagenic call [4] was “inactive; negative” and the mutagenic call (Strain/Indicator: TA1535, Metabolic Activation: RAT, LIVER, S-9, AROCLOR 1254 (10 OR 30%), Method: PREINCUBATION) was “inactive; negative”.

In the case of COC1=CC(=O)c2c(ncc3c4c([nH]c23)CCCC4)C1=O, the mutagenic call (Strain/Indicator: TA97A, Metabolic Activation: NONE, Method: STANDARD PLATE) is reported as “active; positive”, the mutagenic call (Strain/Indicator: TA97A, Metabolic Activation: RAT LIVER S-9, AROCLOR 1254, Method: STANDARD PLATE) is reported as “active; positive” and the mutagenic call [5] is reported as “active; positive”. The mutagenic call (Strain/Indicator: TA98, Metabolic Activation: RAT LIVER S-9, AROCLOR 1254, Method: STANDARD PLATE) was “active; positive”, the mutagenic call [6] was “active; positive” and the mutagenic call (Strain/Indicator: TA100, Metabolic Activation: RAT LIVER S-9, AROCLOR 1254, Method: STANDARD PLATE) was “active; positive”. The mutagenic call (Strain/Indicator: TA102, Metabolic Activation: NONE, Method: STANDARD PLATE) was “inactive; negative” and the mutagenic call (Strain/Indicator: TA102, Metabolic Activation: RAT LIVER S-9, AROCLOR 1254, Method: STANDARD PLATE) was “inactive; negative”.

C=CC(=O)N(CC1CO1)CC1CO1 (centres undefined) was tested, and the mutagenic call [2] was “active; positive”, the mutagenic call [5] was “active; positive” and the mutagenic call (Strain/Indicator: TA98, Metabolic Activation: RAT, LIVER, S-9, AROCLOR 1254, Method: PREINCUBATION) was “inactive; negative”. The mutagenic call [7] was “active; positive”, the mutagenic call [3] was “active; positive” and the mutagenic call [6] was “active; positive”. The mutagenic call (Strain/Indicator: TA100, Metabolic Activation: RAT, LIVER, S-9, AROCLOR 1254, Method: PREINCUBATION) was “active; positive” and the mutagenic call (Strain/Indicator: TA100, Metabolic Activation: RAT, LIVER, S-9, AROCLOR 1254, Method: STANDARD PLATE) was “active; positive”.

In the case of Oc1ccc(-c2ccccc2)cc1, the mutagenic call [7] is reported as “active; positive” and the mutagenic call (Strain/Indicator: TA1535, Metabolic Activation: RAT, LIVER, S-9, AROCLOR 1254, Method: STANDARD PLATE) is reported as “inactive; negative”.
